Results on 1 compound are retold here after ChEMBL document CHEMBL1150482, “Synthesis of the 4,5 diphosphonate analog of D,L-myo-inositol 4,5-diphosphate” (Bioorg Med Chem Lett, 1993).

The nature of the assay: Compound was tested for calcium mobilization using rat basophilic leukemia cells at concentration of 5 mM. To be noted: RBL-1. The assay is classed as functional, cell-based.

Structures are written as SMILES.

As to `O=P(O)(O)C[C@@H]1[C@@H](O)[C@H](O)[C@H](O)[C@H](O)[C@H]1CP(=O)(O)O`, the EC50 came to 70 µM.
